We go through five compounds from patent publication US9340590B2 (priority 2011, dated 2016).

Read-outs that look alike come from different tables or passages of the source. Positions of bridges follow the written chain, without caps; N, C: chain ends. Non-standard residues stand in square brackets, D forms with d. Residues, ends and D or L forms follow the SMILES beside them. 1Nal = N[C@@H](Cc1cccc2ccccc12)C(=O)O

Holding throughout (assay): cell-based
Assay [1] deals with T1, hNav1.7 (Homo sapiens, UniProt Q15858). Type of assay: cell-based. Conditions: IonWorks Quattro; clamped to −110 mV, depolarized to −10 mV, 5 min after compound; n=2; read-out: IWQ Use Nav1.7. A general note: Patch clamp records ionic current or voltage across a cell membrane.
Assay [2] has as its target T2, hNav1.5 (Homo sapiens, UniProt Q14524). Conditions: IonWorks Quattro; clamped to −110 mV, depolarized to −10 mV, 5 min after compound; n=2; read-out: IWQ Use Nav1.5.
The target of assay [3] is T3, hNav1.3 (Homo sapiens, UniProt Q9NY46). Conditions: IonWorks Quattro; clamped to −110 mV, depolarized to −10 mV, 5 min after compound; n=2; read-out: IWQ Use Nav1.3.
T3 sequence (Q9NY46 whole entry, looked up): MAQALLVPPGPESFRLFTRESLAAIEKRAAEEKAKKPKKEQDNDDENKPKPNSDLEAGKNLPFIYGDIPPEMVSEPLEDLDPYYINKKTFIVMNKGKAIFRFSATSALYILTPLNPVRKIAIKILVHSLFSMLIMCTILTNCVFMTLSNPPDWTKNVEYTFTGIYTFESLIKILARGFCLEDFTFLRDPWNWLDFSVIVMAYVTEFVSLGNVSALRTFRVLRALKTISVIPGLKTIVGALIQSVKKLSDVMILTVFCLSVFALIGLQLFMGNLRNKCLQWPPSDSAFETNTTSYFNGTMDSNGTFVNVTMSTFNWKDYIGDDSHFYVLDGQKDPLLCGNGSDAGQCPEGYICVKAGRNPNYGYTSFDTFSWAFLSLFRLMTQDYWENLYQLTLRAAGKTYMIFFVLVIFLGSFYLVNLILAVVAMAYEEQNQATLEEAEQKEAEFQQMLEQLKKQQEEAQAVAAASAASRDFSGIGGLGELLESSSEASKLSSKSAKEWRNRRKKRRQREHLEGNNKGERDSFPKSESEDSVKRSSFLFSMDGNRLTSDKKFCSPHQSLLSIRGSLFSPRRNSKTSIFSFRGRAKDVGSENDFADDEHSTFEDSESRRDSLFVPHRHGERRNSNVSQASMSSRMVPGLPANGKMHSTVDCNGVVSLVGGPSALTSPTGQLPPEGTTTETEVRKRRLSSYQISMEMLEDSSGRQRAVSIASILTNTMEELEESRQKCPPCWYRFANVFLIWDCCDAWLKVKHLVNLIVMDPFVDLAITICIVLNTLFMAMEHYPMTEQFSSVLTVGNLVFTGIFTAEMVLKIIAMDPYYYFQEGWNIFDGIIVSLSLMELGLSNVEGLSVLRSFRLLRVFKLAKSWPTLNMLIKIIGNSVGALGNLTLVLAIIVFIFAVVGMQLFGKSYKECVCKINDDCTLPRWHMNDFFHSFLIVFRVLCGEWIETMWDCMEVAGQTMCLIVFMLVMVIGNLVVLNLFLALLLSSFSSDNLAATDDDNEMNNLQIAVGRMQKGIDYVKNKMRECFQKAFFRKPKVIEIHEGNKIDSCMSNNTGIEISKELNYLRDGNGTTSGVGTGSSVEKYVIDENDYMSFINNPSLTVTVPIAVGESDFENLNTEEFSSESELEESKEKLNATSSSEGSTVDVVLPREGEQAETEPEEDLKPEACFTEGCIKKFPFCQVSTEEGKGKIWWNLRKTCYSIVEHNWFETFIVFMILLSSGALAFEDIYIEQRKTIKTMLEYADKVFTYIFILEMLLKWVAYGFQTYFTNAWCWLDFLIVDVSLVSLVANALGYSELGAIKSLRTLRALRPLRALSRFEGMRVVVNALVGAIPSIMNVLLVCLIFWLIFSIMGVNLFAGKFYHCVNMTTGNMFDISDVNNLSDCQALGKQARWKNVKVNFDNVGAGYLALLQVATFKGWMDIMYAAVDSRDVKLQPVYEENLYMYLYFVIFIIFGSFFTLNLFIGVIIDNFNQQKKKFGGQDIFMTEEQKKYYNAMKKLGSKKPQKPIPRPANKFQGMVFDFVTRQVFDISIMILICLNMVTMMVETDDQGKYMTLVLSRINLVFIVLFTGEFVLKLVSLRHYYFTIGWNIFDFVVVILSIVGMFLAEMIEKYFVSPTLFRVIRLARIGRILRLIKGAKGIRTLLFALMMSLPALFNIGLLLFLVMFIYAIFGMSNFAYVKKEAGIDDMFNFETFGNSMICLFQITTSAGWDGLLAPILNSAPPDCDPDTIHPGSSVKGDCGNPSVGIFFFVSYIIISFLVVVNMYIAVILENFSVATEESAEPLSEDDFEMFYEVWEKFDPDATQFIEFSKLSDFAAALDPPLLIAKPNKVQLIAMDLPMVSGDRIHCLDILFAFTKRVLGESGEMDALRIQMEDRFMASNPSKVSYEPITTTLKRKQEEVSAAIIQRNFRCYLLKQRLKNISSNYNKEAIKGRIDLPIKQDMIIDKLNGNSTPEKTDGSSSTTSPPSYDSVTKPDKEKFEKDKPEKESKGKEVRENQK
Assay [4] has as its target T3, hNav1.3. The class given is cell-based. The note with it: for IC50: Nav1.3 Use IC50.
For assay [5], the target named is T1, hNav1.7. The note with it: Nav1.7 Use IC50.
For assay [6], the target named is T2, hNav1.5.

T2 sequence (Q14524 whole entry, looked up): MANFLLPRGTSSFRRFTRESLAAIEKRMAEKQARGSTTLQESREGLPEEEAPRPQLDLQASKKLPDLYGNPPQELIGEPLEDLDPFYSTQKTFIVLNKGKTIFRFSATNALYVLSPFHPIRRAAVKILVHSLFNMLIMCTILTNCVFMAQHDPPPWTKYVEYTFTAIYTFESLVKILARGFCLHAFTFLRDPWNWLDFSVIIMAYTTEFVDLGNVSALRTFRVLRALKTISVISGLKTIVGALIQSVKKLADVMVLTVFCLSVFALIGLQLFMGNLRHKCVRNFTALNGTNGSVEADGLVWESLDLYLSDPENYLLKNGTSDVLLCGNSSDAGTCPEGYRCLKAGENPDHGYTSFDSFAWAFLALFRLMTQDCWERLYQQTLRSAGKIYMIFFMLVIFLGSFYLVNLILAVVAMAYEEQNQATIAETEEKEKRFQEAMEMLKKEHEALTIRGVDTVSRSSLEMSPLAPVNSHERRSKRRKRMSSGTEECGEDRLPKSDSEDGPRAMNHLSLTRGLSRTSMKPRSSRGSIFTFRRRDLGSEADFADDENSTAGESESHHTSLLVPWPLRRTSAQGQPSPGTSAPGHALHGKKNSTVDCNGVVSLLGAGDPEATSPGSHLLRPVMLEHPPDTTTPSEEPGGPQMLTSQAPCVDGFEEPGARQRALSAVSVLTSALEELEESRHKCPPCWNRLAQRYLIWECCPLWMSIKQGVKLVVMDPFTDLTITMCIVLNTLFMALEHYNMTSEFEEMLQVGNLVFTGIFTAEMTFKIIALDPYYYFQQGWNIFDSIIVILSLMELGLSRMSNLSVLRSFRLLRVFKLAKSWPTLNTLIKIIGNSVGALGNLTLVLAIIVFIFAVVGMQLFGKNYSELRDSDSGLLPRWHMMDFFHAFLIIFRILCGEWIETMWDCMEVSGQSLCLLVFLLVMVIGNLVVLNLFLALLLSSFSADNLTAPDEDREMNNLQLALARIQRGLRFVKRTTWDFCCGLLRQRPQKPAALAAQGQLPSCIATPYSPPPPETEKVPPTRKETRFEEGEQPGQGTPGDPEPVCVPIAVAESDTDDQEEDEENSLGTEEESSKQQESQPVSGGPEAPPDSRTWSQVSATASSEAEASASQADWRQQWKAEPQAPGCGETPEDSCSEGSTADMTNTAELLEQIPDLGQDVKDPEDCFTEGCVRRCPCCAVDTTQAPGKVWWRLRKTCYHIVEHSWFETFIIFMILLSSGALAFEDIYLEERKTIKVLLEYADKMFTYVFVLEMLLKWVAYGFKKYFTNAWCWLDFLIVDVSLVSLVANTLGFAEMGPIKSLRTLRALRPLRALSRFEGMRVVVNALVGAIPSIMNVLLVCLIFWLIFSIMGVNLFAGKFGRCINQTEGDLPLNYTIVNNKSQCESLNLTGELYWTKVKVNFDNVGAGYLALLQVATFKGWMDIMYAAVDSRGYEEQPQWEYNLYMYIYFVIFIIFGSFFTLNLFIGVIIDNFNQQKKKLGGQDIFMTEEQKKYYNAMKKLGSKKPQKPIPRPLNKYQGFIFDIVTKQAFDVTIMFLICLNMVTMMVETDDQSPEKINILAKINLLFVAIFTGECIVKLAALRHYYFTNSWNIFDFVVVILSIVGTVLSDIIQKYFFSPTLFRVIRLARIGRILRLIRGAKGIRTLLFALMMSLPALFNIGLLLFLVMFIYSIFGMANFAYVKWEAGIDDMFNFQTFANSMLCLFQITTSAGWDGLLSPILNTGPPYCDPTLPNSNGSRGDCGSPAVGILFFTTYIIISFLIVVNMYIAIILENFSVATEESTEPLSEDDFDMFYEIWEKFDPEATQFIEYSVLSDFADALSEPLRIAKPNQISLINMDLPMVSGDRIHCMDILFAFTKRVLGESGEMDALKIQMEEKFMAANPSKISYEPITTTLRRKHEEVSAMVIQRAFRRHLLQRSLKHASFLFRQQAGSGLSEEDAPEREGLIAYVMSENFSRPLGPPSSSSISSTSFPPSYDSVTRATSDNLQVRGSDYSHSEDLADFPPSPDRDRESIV

Regarding `CC[C@H](C)[C@@H]1NC(=O)[C@@H]2CSSC[C@@H]3NC(=O)[C@H](C(C)C)NC(=O)[C@H](CC(C)C)NC(=O)[C@H](CC(N)=O)NC(=O)[C@@H]4CCCN4C(=O)[C@H](CCCNC(=N)N)NC(=O)[C@H](CSSC[C@H](NC(=O)[C@@H](N)CC(=O)O)C(=O)N[C@@H](CC(C)C)C(=O)NCC(=O)N[C@@H](Cc4ccccc4)C(=O)N[C@@H](CC(C)C)C(=O)N[C@@H](CCCNC(=N)N)C(=O)N[C@@H](CCCCN)C(=O)N2)NC(=O)[C@H](CSSC[C@@H](C(=O)N[C@@H](CCCCN)C(=O)N[C@@H](Cc2ccc(O)cc2)C(=O)N[C@H](C(=O)N[C@@H](Cc2ccccc2)C(N)=O)C(C)C)NC(=O)[C@H](Cc2c[nH]c4ccccc24)NC(=O)[C@H](CCCCN)NC(=O)[C@H](Cc2cnc[nH]2)NC(=O)[C@H]([C@@H](C)O)NC(=O)[C@H](CCCNC(=N)N)NC(=O)[C@H](CO)NC3=O)NC(=O)[C@H](CCCCN)NC(=O)[C@H](CC(=O)O)NC(=O)[C@H](CC(N)=O)NC(=O)[C@H](CC(=O)O)NC(=O)[C@@H]2CCCN2C1=O` [SEQ ID NO: 244] (H-DCLGFLRKCIPDNDKCCRPNLVCSRTHKWCKYVF-NH2; disulfide 2-17, 9-23, 16-30), the IC50 at hNav1.7 [1] is 0.06 µM; at hNav1.5 [2], 6.42 µM; on hNav1.3 [3], 0.04 µM; at hNav1.3 [4], 0.018 µM; on hNav1.7 [5], 0.026 µM.
Take `CC[C@H](C)[C@@H]1NC(=O)[C@@H]2CSSC[C@@H]3NC(=O)[C@H](C(C)C)NC(=O)[C@H](CC(C)C)NC(=O)[C@H](CC(N)=O)NC(=O)[C@@H]4CCCN4C(=O)[C@H](CCCNC(=N)N)NC(=O)[C@H](CSSC[C@H](NC(=O)[C@@H](N)CC(=O)O)C(=O)N[C@@H](CC(C)C)C(=O)NCC(=O)N[C@@H](Cc4ccc(I)cc4)C(=O)N[C@@H](CCSC)C(=O)N[C@@H](CCCNC(=N)N)C(=O)N[C@@H](CCCCN)C(=O)N2)NC(=O)[C@H](CSSC[C@@H](C(=O)N[C@@H](CCCCN)C(=O)N[C@@H](Cc2ccc(O)cc2)C(=O)N[C@H](C(=O)N[C@@H](Cc2ccccc2)C(N)=O)C(C)C)NC(=O)[C@H](Cc2c[nH]c4ccccc24)NC(=O)[C@H](CCCCN)NC(=O)[C@H](Cc2c[nH]cn2)NC(=O)[C@H]([C@@H](C)O)NC(=O)[C@H](CCCNC(=N)N)NC(=O)[C@H](CO)NC3=O)NC(=O)[C@H](CCCCN)NC(=O)[C@H](CC(=O)O)NC(=O)[C@H](CC(N)=O)NC(=O)[C@H](CC(=O)O)NC(=O)[C@@H]2CCCN2C1=O` [SEQ ID NO: 247]: the IC50 on hNav1.7 [1] is 0.16 µM; at hNav1.5 [2] it was 6.16 µM; at hNav1.3 [3], 0.02 µM; against hNav1.3 [4], 0.09 µM; at hNav1.7 [5] it was 0.247 µM. Moreover, the “potency against NaV1.3, in words” value at hNav1.3 [4] is recorded as “increased potency”.
Take `CC[C@H](C)[C@@H]1NC(=O)[C@@H]2CSSC[C@@H]3NC(=O)[C@H](C(C)C)NC(=O)[C@H](CC(C)C)NC(=O)[C@H](CC(N)=O)NC(=O)[C@@H]4CCCN4C(=O)[C@H](CCCNC(=N)N)NC(=O)[C@H](CSSC[C@H](NC(=O)[C@@H](N)CC(=O)O)C(=O)N[C@@H](CC(C)C)C(=O)NCC(=O)N[C@@H](Cc4ccccc4)C(=O)N[C@@H](CCSC)C(=O)N[C@@H](CCCNC(=N)N)C(=O)N[C@@H](CCCCN)C(=O)N2)NC(=O)[C@H](CSSC[C@@H](C(=O)N[C@@H](CCCCN)C(=O)N[C@@H](Cc2cccc4ccccc24)C(=O)N[C@H](C(=O)N[C@@H](Cc2ccccc2)C(N)=O)C(C)C)NC(=O)[C@H](Cc2c[nH]c4ccccc24)NC(=O)[C@H](CCCCN)NC(=O)[C@H](Cc2cnc[nH]2)NC(=O)[C@H]([C@@H](C)O)NC(=O)[C@H](CCCNC(=N)N)NC(=O)[C@H](CO)NC3=O)NC(=O)[C@H](CCCCN)NC(=O)[C@H](CC(=O)O)NC(=O)[C@H](CC(N)=O)NC(=O)[C@H](CC(=O)O)NC(=O)[C@@H]2CCCN2C1=O` [[1-Nal32]GpTx-1(1-34)] (H-DCLGFMRKCIPDNDKCCRPNLVCSRTHKWCK[1Nal]VF-NH2; disulfide 2-17, 9-23, 16-30): the IC50 against hNav1.3 [4] was found to be 0.012 µM; on hNav1.5 [6] it was 0.988 µM.
Regarding `CC[C@H](C)[C@@H]1NC(=O)[C@@H]2CSSC[C@@H]3NC(=O)[C@H](C(C)C)NC(=O)[C@H](CC(C)C)NC(=O)[C@H](CC(N)=O)NC(=O)[C@@H]4CCCN4C(=O)[C@H](CCC(=O)O)NC(=O)[C@H](CSSC[C@H](NC(=O)[C@@H](N)CC(=O)O)C(=O)N[C@@H](CC(C)C)C(=O)NCC(=O)N[C@@H](Cc4ccccc4)C(=O)N[C@@H](CCSC)C(=O)N[C@@H](CCCNC(=N)N)C(=O)N[C@@H](CCCCN)C(=O)N2)NC(=O)[C@H](CSSC[C@@H](C(=O)N[C@@H](CCCCN)C(=O)N[C@@H](Cc2ccc(O)cc2)C(=O)N[C@H](C(=O)N[C@@H](Cc2ccccc2)C(N)=O)C(C)C)NC(=O)[C@H](Cc2c[nH]c4ccccc24)NC(=O)[C@H](CCCCN)NC(=O)[C@H](Cc2cnc[nH]2)NC(=O)[C@H]([C@@H](C)O)NC(=O)[C@H](CCCNC(=N)N)NC(=O)[C@H](CO)NC3=O)NC(=O)[C@H](CCCCN)NC(=O)[C@H](CC(=O)O)NC(=O)[C@H](CC(N)=O)NC(=O)[C@H](CC(=O)O)NC(=O)[C@@H]2CCCN2C1=O` [[Glu18]GpTx-1(1-34)] (H-DCLGFMRKCIPDNDKCCEPNLVCSRTHKWCKYVF-NH2; disulfide 2-17, 9-23, 16-30), the results for the IC50 at hNav1.3 [4] and at hNav1.7 [5] were 0.098 µM and 0.018 µM, respectively.
Take `CC[C@H](C)[C@@H]1NC(=O)[C@@H]2CSSC[C@@H]3NC(=O)[C@H](C(C)C)NC(=O)[C@H](CC(C)C)NC(=O)[C@H](CC(N)=O)NC(=O)[C@@H]4CCCN4C(=O)[C@H](CCCNC(=N)N)NC(=O)[C@H](CSSC[C@H](NC(=O)[C@@H](N)CC(=O)O)C(=O)N[C@@H](CC(C)C)C(=O)NCC(=O)N[C@@H](Cc4ccccc4)C(=O)N[C@@H](CCSC)C(=O)N[C@@H](CCCNC(=N)N)C(=O)N[C@@H](CCCCN)C(=O)N2)NC(=O)[C@H](CSSC[C@@H](C(=O)N[C@@H](CCCCN)C(=O)N[C@@H](Cc2ccc(O)cc2)C(=O)N[C@H](C(=O)N[C@@H](Cc2ccccc2)C(N)=O)C(C)C)NC(=O)[C@H](Cc2c[nH]c4ccccc24)NC(=O)[C@H](CCCCN)NC(=O)[C@H](Cc2cnc[nH]2)NC(=O)[C@H](CCC(=O)O)NC(=O)[C@H](CCCNC(=N)N)NC(=O)[C@H](CO)NC3=O)NC(=O)[C@H](CCCCN)NC(=O)[C@H](CC(=O)O)NC(=O)[C@H](CC(N)=O)NC(=O)[C@H](CC(=O)O)NC(=O)[C@@H]2CCCN2C1=O` [[Glu26]GpTx-1(1-34)] (H-DCLGFMRKCIPDNDKCCRPNLVCSREHKWCKYVF-NH2; disulfide 2-17, 9-23, 16-30): the IC50 on hNav1.3 [4] was found to be 0.216 µM; against hNav1.7 [5], 0.052 µM.
